Measurements: publication PMC12452389, “Arginine-Derived Cationic Surfactants Containing Phenylalanine and Tryptophan: Evaluation of Antifungal Activity, Biofilm Eradication, Cytotoxicity, and Ecotoxicity” (Journal of Xenobiotics, 2025)
Converted amounts (≈) assume the structure as drawn. “And” between values parts separate entries of the source, which are not always exact repeats. Equal values may be shown once. Where a name gives a salt, the structure may show the parent alone. Read-outs that look alike come from different tables or passages of the source. Peptide text beside a SMILES is read from it. * marks the point of attachment. Lauroyl = CCCCCCCCCCCC(=O)*

Experiments:
[1] = Surface tension, pendant drop tensiometer (cmc, γc); assay type: physicochemical; details: for cmc: from surface tension
Experimental: Surface tension was measured using a custom-built pendant drop tensiometer, as described in detail in reference. Briefly, a droplet of surfactant solution is formed at the tip of a straight-cut Teflon tube. The image of the droplet is captured using a webcam, and its shape is analyzed by fitting the droplet profile to the Laplace–Young equation [14], To minimize evaporation, all measurements were conducted in a saturated humid atmosphere. The use of this technique is especially well-suited for cationic surfactants because it helps to mitigate complications related to surface adsorption. Critical micelle concentration values (cmc) were determined by finding the intersection of the linear fits before and after the break in the curves.

[2] = tested on: Candida albicans ATCC 90028; test: MIC broth microdilution; assay type: cell-based; details: C. albicans; for MIC: Candida albicans, ATCC90028, read-out: MIC
Experimental: (§1) The antimicrobial activity of these compounds was assessed against selected yeast and bacterial strains: Candida albicans ATCC 90028 (CA9), Candida rugosa ATCC 10571 (CR), Candida glabrata ATCC 66032 (CG), Candida parapsilosis ATCC 22019 (CP), Candida tropicalis ATCC 7349 (CT), Candida auris ATCC 21092 (CA), and Cyberlindnera jadinii ATCC 60459. Frozen yeast stocks were plated on Sabouraud agar (SBA) and incubated at 30 °C for 24 h. Three to four colonies from each strain were then suspended in RPMI 1640 (Roswell Park Memorial Institute medium, Sigma- Aldrich, Merck, Darmstadt, Germany) to prepare bacterial dispersions of ~1.5 × 10^6 CFU/mL.
(§2) A broth microdilution assay was used to calculate MIC values. Twofold serially diluted compounds in RPMI 1640 medium (from 256 to 2 μg/mL), were dispensed (100 μL per well) into a 96-well plate. Then, 100 μL of a yeast starter culture was added to each well to reach a final inoculum of 7.5 × 10^5 CFU/mL. Wells containing only nutrient broth without the tested surfactant served as growth controls. Microbial growth was assessed by turbidity, which reflects increases in biomass and cell count. […] To confirm the obtained MICs, 20 μL of 0.015% (w/v) resazurin was dispensed to each well and incubated for 3 h at 30 °C. Metabolic activity was evidenced by a color change from blue to pink, thereby confirming the MIC value.

Candida auris ATCC 21092 = test: MIC broth microdilution; assay type: cell-based; details: C. auris; for MIC: Candidozyma auris, ATCC21092, read-out: MIC
Experimental: as §1, §2

[3] = tested on: Candida glabrata ATCC 66032; test: MIC broth microdilution; assay type: cell-based
Experimental: as §1, §2

[4] = tested on: Candida parapsilosis ATCC 22019; test: MIC broth microdilution; assay type: cell-based; details: C. parapsilosis; for MIC: Lodderomyces parapsilosis, ATCC22019, read-out: MIC
Experimental: as §1, §2

[5] = tested on: Candida rugosa ATCC 10571; test: MIC broth microdilution; assay type: cell-based; details: C. rugosa; for MIC: Diutina rugosa, ATCC10571, read-out: MIC
Experimental: as §1, §2

[6] = tested on: Candida tropicalis ATCC 7349; test: MIC broth microdilution; assay type: cell-based; details: C. tropicalis; for MIC: Candida tropicalis, ATCC7349, read-out: MIC
Experimental: as §1, §2

[7] = tested on: Cyberlindnera jadinii ATCC 60459 (C. jardinii); test: MIC broth microdilution; assay type: cell-based; details: for Selectivity Index (HC50/MIC): C. jardini; for MIC: Williopsis jadinii
Experimental: as §1, §2

erythrocytes = test: Hemolytic activity assay; assay type: cell-based; details: rabbit erythrocytes
Experimental: Fresh rabbit blood was obtained from the Animal Facility of the CID-CSIC (Research and Development Center, Spanish National Research Council, Barcelona, Spain). Sample collection was conducted in strict compliance with the bioethical guidelines established under Spanish legislation. Erythrocytes were isolated by centrifugation (3000 rpm/10 min). The supernatant was discarded, and the erythrocytes were washed three times with PBS (phosphate-buffered saline, pH 7.4) and then resuspended in PBS at a concentration of 8 × 10^9 cells/mL. Subsequently, varying volumes of a concentrated surfactant solution were added to Eppendorf tubes containing 25 μL of erythrocyte suspension. PBS was then added to bring the total volume to 1 mL. The samples were gently shaken for 10 min at room temperature and centrifuged at 10,000 rpm for 5 min. Hemolysis was evaluated by measuring the absorbance of the supernatant at 540 nm and comparing it to that of a 100% hemolysis control (erythrocytes treated with distilled water). The HC50, defined as the surfactant concentration that induces 50% hemolysis, was determined from the concentration–response curves: % hemolysis= Abstest compound/AbsBasal haemolytic activity ×100

Daphnia magna = test: Acute toxicity, immobilization test; assay type: in vivo; details: Daphnia magna, 48 h
Experimental: Aquatic toxicity evaluation was performed using Daphnia magna following established protocols. This bioassay method employs laboratory-cultured freshwater microcrustaceans to evaluate surfactant toxicity in aquatic environments. Test organisms were utilized during their initial 24 h life stage to ensure consistency. The endpoint measurement focused on mobility impairment, specifically the loss of swimming capability after gentle stimulation lasting 15 s. Testing conditions included controlled water chemistry parameters: pH maintained at 8.0, calcium-to-magnesium ratio of 4:1, and total hardness of 250 mg/L as CaCO3. All experiments were conducted under dark conditions at 20 °C. The experimental design incorporated ten test concentrations for each surfactant compound, distributed in geometric progression. Each concentration level included 20 Daphnia specimens distributed across four replicate groups of five organisms each. Mobility assessment occurred at 48 h post-exposure, with immobilization percentages plotted against concentration using probability–logarithmic scaling.

Vibrio fischeri = test: Luminescence reduction test; assay type: cell-based; details: Aliivibrio fischeri, 0.25 h; Vibrio fischeri bioluminescence, 15 min of exposure; 95% confidence intervals in parentheses
Experimental: Ecotoxicological assessment of cationic surfactants was conducted using the Vibrio fischeri luminescent bioassay. This method relies on the measurement of decreased bioluminescent output from marine bacteria following contact with potentially toxic substances. Regression analysis was used to determine the concentration of the compound that caused a 50% reduction (EC50) in the amount of light emitted by the bacteria. The stated toxicity statistics given are based on the bacteria being exposed to the ionic liquid solution for 15 min at 15 °C.

[8] = parameters: method as in PMID 36559096; details: conductivity values; cited from earlier work
[9] = Nakaseomyces glabratus, ATCC66032, 24 h, C. glabrata, RPMI 1640, 24 h, 30 °C, read-out: MIC
[10] = Nakaseomyces glabratus, ATCC66032, C. glabrata, value in parentheses, read-out: MIC
[11] = ATCC60459, C. jardinii, RPMI 1640, 24 h, 30 °C, read-out: MIC
[12] = ATCC60459, C. jardinii, value in parentheses, read-out: MIC

Structure (SMILES)	γc (surface tension at the cmc) [1] [mNm^−1]	cmc [1] [mM]	Selectivity Index (HC50/MIC) ([2]; Table S2)	MIC ([2]; RPMI 1640, 24 h, 30 °C) [µg/mL]	MIC ([2]; value in parentheses) [µM]	Selectivity Index (HC50/MIC) (Candida auris ATCC 21092; Table S2)	MIC (Candida auris ATCC 21092; RPMI 1640, 24 h, 30 °C) [µg/mL]	MIC (Candida auris ATCC 21092; value in parentheses) [µM]	Selectivity Index (HC50/MIC) ([3]; C. glabrata, Table S2)	MIC [3, 9] [µg/mL]	MIC [3, 10] [µM]	MIC ([4]; RPMI 1640, 24 h, 30 °C) [µg/mL]	MIC ([4]; value in parentheses) [µM]	MIC ([5]; RPMI 1640, 24 h, 30 °C) [µg/mL]	MIC ([5]; value in parentheses) [µM]	MIC ([6]; RPMI 1640, 24 h, 30 °C) [µg/mL]	MIC ([6]; value in parentheses) [µM]	HC50 (erythrocytes; 10 min, room temperature) [µg/mL]	HC50 (erythrocytes; value in parentheses) [µM]	cmc Cond [8] [mM]	other results
CCCCCCCCCCNC(=O)C(CCCNC(=N)N)NC(=O)C(N)Cc1ccccc1 (stereo not drawn) [PANHC10]	30.6 ± 9.7	6.7	1.6	128	240	0.8	256	480	3.7	64	120	64	120	128	240	128	240	215 ± 22	404 ± 42	7.2	Selectivity Index (HC50/MIC) ([4]; Table S2): 3.7; Selectivity Index (HC50/MIC) ([5]; Table S2): 1.6; Selectivity Index (HC50/MIC) ([6]; Table S2): 1.6; Selectivity Index (HC50/MIC) ([7]; Table S2): 1.6; MIC [7, 11]: 128 µg/mL; MIC [7, 12]: 240 µM; EC50 (Daphnia magna): 22 µg/mL (≈ 47.8 µM); EC50 (Vibrio fischeri): 5.6 µg/mL (≈ 12.2 µM)
CCCCCCCCCCCCNC(=O)C(CCCNC(=N)N)NC(=O)C(N)Cc1c[nH]c2ccccc12 (stereo not drawn) [TANHC12]	28.7 ± 3.3	2.5	0.25	64	108	0.1	128	216	0.25	128	108	32	54	4	7	32	54	16 ± 0.3	27 ± 0.6	0.6	Selectivity Index (HC50/MIC) ([2]; Table S1): 0.25; Selectivity Index (HC50/MIC) (Candida auris ATCC 21092; Table S1): 0.12; MIC ([3]; C. glabrata, RPMI 1640, 24 h, 30 °C): 64 µg/mL; Selectivity Index (HC50/MIC) ([3]; C. glabrata, Table S1): 0.12; MIC ([3]; Nakaseomyces glabratus, ATCC66032, 24 h, C. glabrata, value in parentheses, read-out: MIC): 216 µM; Selectivity Index (HC50/MIC) ([4]; Table S1): 0.5; Selectivity Index (HC50/MIC) ([4]; Table S2): 0.5; Selectivity Index (HC50/MIC) ([5]; Table S1): 3.8; Selectivity Index (HC50/MIC) ([5]; Table S2): 4; Selectivity Index (HC50/MIC) ([6]; Table S1): 0.5; Selectivity Index (HC50/MIC) ([6]; Table S2): 0.5; Selectivity Index (HC50/MIC) ([7]; Table S1): 0.25; Selectivity Index (HC50/MIC) ([7]; Table S2): 0.25; MIC ([7]; ATCC60459): 108 µM; MIC ([7]; ATCC60459, 24 h): 64 µg/mL; EC50 (Daphnia magna): 3 µg/mL (≈ 5.68 µM); EC50 (Vibrio fischeri): 1.9 µg/mL (≈ 3.6 µM)
CCCCCCCCCCCCNC(=O)C(N)Cc1ccccc1 (stereo not drawn) [PNHC12, phenylalanine dodecyl amide hydrochloride]	26.6 ± 0.8	1.2	–	8	22	–	32	88	–	32	88	32	88	32	88	32	88	20 ± 0.6	55 ± 1.7	1.2	Selectivity Index (HC50/MIC) ([2]; Table S1): 2.5; Selectivity Index (HC50/MIC) (Candida auris ATCC 21092; Table S1): 0.6; Selectivity Index (HC50/MIC) ([3]; C. glabrata, Table S1): 0.6; Selectivity Index (HC50/MIC) ([4]; Table S1): 0.6; Selectivity Index (HC50/MIC) ([5]; Table S1): 0.6; Selectivity Index (HC50/MIC) ([6]; Table S1): 0.6; Selectivity Index (HC50/MIC) ([7]; Table S1): 0.6; MIC ([7]; ATCC60459, 24 h): 32 µg/mL and 88 µM
CCCCCCCCCCNC(=O)C(CCCNC(=N)N)NC(=O)C(N)Cc1c[nH]c2ccccc12 (stereo not drawn) [TANHC10]	30.6 ± 2.0	5.4	1.15	64	112	0.6	128	224	1.15	64	112	64	112	4	7	64	112	74 ± 2.8	129 ± 5	1.7	Selectivity Index (HC50/MIC) ([4]; Table S2): 1.15; Selectivity Index (HC50/MIC) ([5]; Table S2): 18; Selectivity Index (HC50/MIC) ([6]; Table S2): 1.15; Selectivity Index (HC50/MIC) ([7]; Table S2): 1.15; MIC [7, 11]: 64 µg/mL; MIC [7, 12]: 112 µM; EC50 (Daphnia magna): 9.7 µg/mL (≈ 19.4 µM); EC50 (Vibrio fischeri): 2.2 µg/mL (≈ 4.4 µM)
CCCCCCCCCCCC(=O)NC(Cc1ccccc1)C(=O)NC(CCCNC(=N)N)C(=O)OC (stereo not drawn) [C12PAM] (Lauroyl-Phe-Arg-OMe; configuration not given here)	29.5 ± 2.7	0.7	–	16	29	–	32	58	–	16	29	16	29	4	7	16	29	23 ± 0.8	42 ± 1.5	1.2	Selectivity Index (HC50/MIC) ([2]; Table S1): 1.4; Selectivity Index (HC50/MIC) (Candida auris ATCC 21092; Table S1): 0.7; Selectivity Index (HC50/MIC) ([3]; C. glabrata, Table S1): 1.4; Selectivity Index (HC50/MIC) ([4]; Table S1): 1.4; Selectivity Index (HC50/MIC) ([5]; Table S1): 6; Selectivity Index (HC50/MIC) ([6]; Table S1): 1.4; Selectivity Index (HC50/MIC) ([7]; Table S1): 0.4; MIC ([7]; ATCC60459): 116 µM; MIC ([7]; ATCC60459, 24 h): 64 µg/mL
